In patent US12012394B2, “Alpha-synuclein ligands” (Washington University, priority 2018, dated 2024):
Where “and” joins values, the source holds several entries; their conditions need not be identical. Identical values can stand only once.

Legend:
[1] = target: Banner PD-seeded α-synuclein fibrils (Homo sapiens (Human), UniProt P37840); test: Homologous competition radioligand binding assay, PD-seeded fibrils
Description: The equilibrium dissociation constant (Kd) for a series of compounds was determined using direct radioactive competitive binding assays (homologous or heterologous) with either recombinant α-synuclein fibrils or brain tissue homogenates from AD cases.
Recombinant protein was produced in E. coli using protocols based on previously described methods for α-synuclein [Giasson, B. I., et al., “Mutant and wild type human alpha-synucleins assemble into elongated filaments with distinct morphologies in vitro,” 1999, J Biol. Chem., 274:7619-7622; Huang, C., et al., “A new method for purification of recombinant human alpha-synuclein in Escherichia coli,” 2005, Protein Expr Purif, 42:173-177; Yu, L., et al, “Synthesis and in vitro evaluation of á-synuclein ligands,” 2012, Bioorg. Med. Chem., 20:4625-4634] and tau [Li, W., et al., “Characterization of two VQIXXK motifs for tau fibrillization in vitro,” 2006, Biochemistry, 45:15692-15701]. BL21(DE3)RIL E. coli were transformed with a pRK172 bacterial expression plasmid containing the human α-synuclein coding sequence. […]. Overnight cultures were centrifuged at 3,900×g for 10 min at 25° C. and the bacterial pellets were resuspended by gentle vortexing in 20 ml osmotic shock buffer (30 mM Tris-HCl, 2 mM EDTA, 40% Sucrose, pH 7.2) and then incubated at room temperature for 10 min. The cell suspension was then centrifuged at 8,000×g for 10 min at 25° C. and the pellet was resuspended in 22.5 ml cold H2O before adding 9.4 μl 2 M MgCl2 to each tube. The suspension was incubated on ice for 3 min prior to centrifugation at 20,000×g for 15 min at 4° C. After the supernatant was transferred to a fresh tube, streptomycin was added to a final concentration of 10 mg/ml and centrifuged at 20,000×g for 15 min at 4° C. The supernatant from this step was collected and dithiothreitol (DTT) and Tris-HCl pH 8.0 were added to final concentrations of 1 mM and 20 mM respectively, before boiling for 10 min to precipitate heat-sensitive proteins, which were pelleted at 20,000×g for 15 min at 4° C. The supernatant was collected and filtered through a 0.45 μm surfactant-free cellulose acetate filter (Corning) before loading onto a 1 ml DEAE Sepharose column equilibrated in 20 mM Tris-HCl pH 8.0, 1 mM EDTA, and 1 mM DTT. The DEAE column was washed with 20 mM Tris-HCl pH 8.0, 1 mM EDTA, 1 mM DTT before eluting α-synuclein protein in 20 mM Tris-HCl pH 8.0 buffer with 1 mM EDTA, 1 mM DTT and 0.3 M NaCl. Purified α-synuclein protein was dialyzed overnight in 10 mM Tris-HCl pH 7.6, 50 mM NaCl, 1 mM DTT.
Purified recombinant α-synuclein monomer (2 mg/ml) was incubated in 20 mM Tris-HCl, pH 8.0, 100 mM NaCl for 72 h at 37 C with shaking at 1000 rpm in an Eppendorf Thermomixer. […] The concentration of α-synuclein monomer in the supernatant was determined in a BCA protein assay according to the manufacturer's instructions, using a bovine serum albumin (BSA) standard curve. The measured decrease in α-synuclein monomer concentration was used to determine the concentration of fibrils in the 72 h fibril reaction mixture. […]
These direct binding assays used a fixed concentration of either fibrils or PD/AD tissue and the radioligand (e.g., [^18F]28) and varying concentration ranges of corresponding homologous non-radiolabeled standard reference compound. […] Reactions were incubated at 37° C. for 1 h before quantifying bound radioligand. […]

[2] = MicroPET studies in the brain of nonhuman primate; assay type: in vivo; settings: male adult cynomolgus macaca
Description: 9.93 mCi of [^18F]TZ61-44 was injected into a male adult cynomolgus macaca (9.25 Kg) 10.57 mCi of [^11C]TZ55-107 was injected into was injected into a male adult cynomolgus macaca (9.40 Kg) A simplified reference tissue model (SRTM) and spatially-constraint linear regression algorithm was used to generate R1 and DVR images (FIGS. 18A and 18B).
FIGS. 19A and 19B graphically depict the uptake of labeled TZ55-107 and TZ61-44 in the animals. [^18F]TZ61-44 had highest cortical uptake (SUV) of ˜3.48 at 4 min and the uptake ratio at 4 min versus 120 min reached ˜4.2 (FIG. 19A); [^11C]TZ55-107 had highest cortical uptake of ˜6.40 at 4 min, and the uptake ratio at 4 min versus 120 min reached ˜6.30 (FIG. 19B).

Experimental Log P = assay type: physicochemical

Kd ([1]; 25 nM Banner PD-seeded fibrils): 5.4 nM and 9.7 nM and 12 nM and 25 nM and 26 nM | Kd ([1]; 75 nM Banner PD-seeded fibrils): 30 nM | highest cortical uptake (SUV) ([2]; brain cortex, at 4 min): ~3.48 SUV | uptake ratio at 4 min versus 120 min ([2]; brain cortex): ~4.2 | logP (Experimental Log P): 1.97 ± 0.4
SMILES: COc1ccc(Nc2ccc3cc(OCCF)ccc3n2)cn1 [TZ61-44]
blood brain barrier penetration [2]: able to penetrate the blood brain barrier
